# Measured values from patent US12594266B2, “Triterpenoid antifungals for the treatment or prevention of Pneumocystis spp. pneumonia” (priority 2019, dated 2026).
# Tests used:
# [1] = patients with HIV; cited from earlier work
# P. murina [2] = test: Mouse model of prophylaxis for PCP (C3H/HeN mice, intranasal P. murina); type: in vivo, Pneumocystis murina; details: for Percent Survival at Day 7 / Percent Survival at Day 14 / Percent Survival at Day 21 / Percent Survival at Day 28 / Percent Survival at Day 35 / Percent Survival at Day 42: prophylaxis, mice
# Protocol: Compound Preparation: SCY-078 (ibrexafungerp) was prepared in 0.5% methyl cellulose for oral administration. A correction factor of 1.37 for this lot was taken into account for salt and water content. Mice in the high dose group received 0.6 mg of SCY-078 BID, mid dose group received 0.3 mg of SCY-078 BID, and low dose group received 0.15 mg of SCY-078 BID, based on average mouse weights of 20 g.
# P. murina prophylaxis study method: C3H/HeN mice (Charles River) were infected by intranasal inoculation of P. murina organisms at 2×10^6/50 μl from a liquid nitrogen repository. Prior to inoculation, the P. murina were pre-incubated overnight in RPMI 1640 medium supplemented with calf serum and antibiotics to eliminate any bacterial contamination. The immune systems of the mice were suppressed by the addition of dexamethasone at 4 mg/liter to acidified drinking water (hydrochloric acid at 1 ml/liter). Acidification is used to prevent secondary microbial infections. The mice were divided into a negative (non-treated) control group (control steroid—C/S), positive control group (trimethoprim/sulfamethoxazole—TMP/SMX) and treatment groups. SCY-078 was administered orally (po) BID at the specified doses. The mice were started on the prophylaxis regimen at the same time they were inoculated. Immune suppression and treatment continued for the entire 6-week study. At the conclusion of that time, the mice were euthanized by CO2 and lungs processed for analysis by homogenization. Slides were made from the lung homogenates at different dilutions and stained with Diff-Quik to quantify total nuclei (trophic forms) and with cresyl echt violet to quantify the asci (cyst forms).
# (§1) Calculations: Efficacy was based on the reduction of organism burden between the treatment groups and the negative control group as determined by microscopic evaluation. The nuclei and asci counts for each lung were log transformed and statistical analysis was determined by the analysis of variance (ANOVA); individual groups were compared by the Student-Newman-Keuls t test for multiple comparisons using GraphPad Prism. Statistical significance was accepted at a P value≤0.05.
# [3] = human, in vivo
# Excerpt: The safety and tolerability of SCY-078 has been evaluated in more than 900 subjects in ˜20 clinical trials, at different doses and treatment durations, including administration for up to 1 year. […] Serious adverse events possibly related to SCY-078 have been very rare and interruption or discontinuation of therapy due to adverse reactions has been uncommon. Additionally, the safety profile of oral SCY-078 has been evaluated in standard long-term non-clinical toxicology studies including administration for 9 months in dogs and 6 months in rats, at doses and exposures higher than those anticipated in humans, in line with ICH guidelines. The results from these non-clinical studies support the long-term administration of oral SCY-078 in humans. SCY-078 is currently under evaluation in ongoing clinical trials for the treatment of fungal infections such as candidiasis and aspergillosis. SCY-078 has not been evaluated in clinical trials for the treatment or prevention of PCP.
# P. murina [4] = test: Mouse model of treatment of PCP, 28-42 days (Balb/c mice); type: in vivo, Pneumocystis murina
# Protocol: Compound Preparation: SCY-078 (ibrexafungerp) was prepared in 0.5% methyl cellulose for oral administration. A correction factor of 1.37 was taken into account for salt and water content. […]
# P. murina treatment study methods: Balb/c mice ordered from Charles River were infected with P. murina pneumonia through exposure to mice with a fulminant P. murina infection (seed mice). These mice were immune suppressed by the addition of dexamethasone at 4 mg/liter to the drinking water. Sulfuric acid at 1 ml/liter was also added to the drinking water for disinfection. The seed mice were rotated within the cages for 2 weeks and then removed. After the mice developed a moderate infection level (approximately 5 weeks), the mice were divided into a negative control group (control steroid), positive control group (TMP/SMX), and treatment groups. Drugs to be tested were administered by oral gavage (PO) on a mg/kg/BID basis for up to 6 weeks. At the end of the treatment, the mice were euthanized by CO2 and lungs were processed for analysis. Slides were made from the lung homogenates at different dilutions and stained with Diff-Quik™ to quantify the nuclei (all life cycle stages) and with cresyl echt violet to quantify the asci.
# as §1
# P. murina [5] = test: Mouse model of treatment of PCP, early response (C3H/HeN mice); type: in vivo, Pneumocystis murina
# [6] = 15 and 10 mg/kg groups, days 28 and 35
# [7] = all dose levels (15, 10, 5 mg/kg BID po), days 28, 35 and 42
# [8] = both dose levels (30 and 15 mg/kg BID po), Day 14 and Day 21
# [9] = 30 mg/kg BID po, 6 weeks prophylaxis
# [10] = all 3 dose levels (30, 15, 7.5 mg/kg BID po), 6 weeks prophylaxis, lung
molecule,measurement,setting,value
"Trimethoprim-sulfamethoxazole [TMP/SMX, reference compound]",hepatitis,[1],20 % of patients
same,thrombocytopenia,[1],15 % of patients
same,Percent Survival at Day 7,P. murina [2]; 50/250 mg/kg 3x/wk,100%
same,Percent Survival at Day 14,P. murina [2]; 50/250 mg/kg 3x/wk,90%
same,Percent Survival at Day 21,P. murina [2]; 50/250 mg/kg 3x/wk,90%
same,Percent Survival at Day 28,P. murina [2]; 50/250 mg/kg 3x/wk,90%
same,Percent Survival at Day 35,P. murina [2]; 50/250 mg/kg 3x/wk,90%
same,Percent Survival at Day 42,P. murina [2]; 50/250 mg/kg 3x/wk,90%
"CC(C)[C@@H](C)[C@@]1(C)CC[C@]2(C)[C@H]3CC[C@@H]4[C@@]5(COC[C@@]4(C)[C@@H](OC[C@](C)(N)C(C)(C)C)[C@H](n4ncnc4-c4ccncc4)C5)C3=CC[C@@]2(C)[C@@H]1C(=O)O [SCY-078, (1S,4aR,6aS,7R,8R,10aR,10bR,12aR,14R,15R)-15-[[(2R)-2-amino-2,3,3-trimethylbutyl]oxy]-8-[(1R)-1,2-dimethylpropyl]-14-[5-(4-pyridinyl)-1H-1,2,4-triazol-1-yl]-1,6,6a, 7,8,9,10,10a, 10b, 11,12,12a-dodecahydro-1,6a, 8,10a-tetramethyl-4H-1,4a-propano-2H-phenanthro [1,2-c]pyran-7-carboxylic acid]",interruption or discontinuation of therapy due to adverse reactions,[3],uncommon
same,most common adverse events,[3],"mild to moderate, transient gastrointestinal disorders"
same,serious adverse events possibly related to SCY-078,[3],very rare
same,asci observed in lung,P. murina [4]; [6],No asci were observed
same,reduction of asci burden compared with positive control (TMP/SMX),P. murina [4]; [6],worked equally as well
same,asci observed in lung,"P. murina [4]; all 3 dose groups, day 42",some asci were observed
same,asci burdens versus vehicle treated negative control group (C/S),P. murina [4]; [7],significantly reduced
same,nuclei burdens versus vehicle treated negative control group (C/S),P. murina [4]; [7],significantly reduced
same,reduction of asci burden compared with positive control (TMP/SMX),"P. murina [4]; all dose levels, day 42",worked equally well
same,magnitude of the effect against nuclei burden compared with TMP/SMX,P. murina [5]; both dose levels,lower than observed with the TMP/SMX control
same,asci burdens versus vehicle treated negative control group (C/S),P. murina [5]; [8],significantly reduced
same,nuclei burdens versus vehicle treated negative control group (C/S),P. murina [5]; [8],significantly reduced
same,extent of asci burden reduction compared with TMP/SMX,"P. murina [5]; both dose levels, Day 14 and Day 21",to a similar extent
same,reduction of asci burden compared with TMP/SMX,"P. murina [5]; both dose levels, day 7",statistically significantly better
same,Percent Survival at Day 7,P. murina [2]; 7.5 mg/kg BID po,100%
same,Percent Survival at Day 14,P. murina [2]; 7.5 mg/kg BID po,90%
same,Percent Survival at Day 21,P. murina [2]; 7.5 mg/kg BID po,90%
same,Percent Survival at Day 28,P. murina [2]; 7.5 mg/kg BID po,90%
same,Percent Survival at Day 35,P. murina [2]; 7.5 mg/kg BID po,90%
same,Percent Survival at Day 42,P. murina [2]; 7.5 mg/kg BID po,90%
same,Percent Survival at Day 7,P. murina [2]; 15 mg/kg BID po,100%
same,Percent Survival at Day 14,P. murina [2]; 15 mg/kg BID po,90%
same,Percent Survival at Day 21,P. murina [2]; 15 mg/kg BID po,90%
same,Percent Survival at Day 28,P. murina [2]; 15 mg/kg BID po,80%
same,Percent Survival at Day 35,P. murina [2]; 15 mg/kg BID po,80%
same,Percent Survival at Day 42,P. murina [2]; 15 mg/kg BID po,80%
same,reduction of asci burden compared with TMP/SMX,P. murina [2]; [9],performed equally as well
same,survival versus vehicle treated negative control group,P. murina [2]; [9],significant improvement in survival
same,Percent Survival at Day 7,P. murina [2]; 30 mg/kg BID po,100%
same,Percent Survival at Day 14,P. murina [2]; 30 mg/kg BID po,100%
same,Percent Survival at Day 21,P. murina [2]; 30 mg/kg BID po,100%
same,Percent Survival at Day 28,P. murina [2]; 30 mg/kg BID po,100%
same,Percent Survival at Day 35,P. murina [2]; 30 mg/kg BID po,100%
same,Percent Survival at Day 42,"P. murina [2]; 30 mg/kg BID po, * statistically significant difference vs C/S group",100* Percent
same,asci burden versus vehicle treated negative control group (C/S),P. murina [2]; [10],significantly reduced
same,nuclei burden versus vehicle treated negative control group (C/S),P. murina [2]; [10],significantly reduced
